Experimental data from patent US20200069772A1, “METHODS OF TREATING EARLY RHEUMATOID ARTHRITIS” (BRISTOL-MYERS SQUIBB COMPANY, priority 2014, published 2020).
Values joined by “and” are separate entries in the source; they are usually repeats but may differ in a detail not shown here. Equal values may be shown once.

Key:
patients with early RA [1] = assay: AVERT phase 3b randomized active-controlled trial: signs and symptoms (DAS-defined remission, other remission and ACR measures); format: in vivo, human
Experimental: Patients receiving oral corticosteroids were required to be on a stable dose (≤10 mg/day for ≥4 weeks) at initiation and to maintain that dose until Month 12.
All patients received concomitant folic acid therapy.
Patients with DAS28 (CRP)≥3.2 were discontinued.
For the purpose of this study, DAS-defined remission was DAS28 (CRP)<2.6.
Exploratory endpoints included: Other remission rates (Simplified Disease Activity Index [SDAI; ≤3.3], Clinical Disease Activity Index [CDAI; ≤2.8] and Boolean remission [28-joint tender joint count ≤1 and 28-joint swollen joint count ≤1 and patient global assessment of disease activity [0-10 cm]≤1 and high-sensitivity CRP≤1 mg/dL]), American College of Rheumatology (ACR) responses and Major Clinical Response (ACR 70 response for 6 months at any time period) in each arm.
Co-primary endpoints were tested in hierarchical fashion. […] All patients who discontinued prior to completing the treatment or withdrawal period were imputed as non-responders for the Month 12 or 18 analyses.
Endpoints of Disease Activity Score (DAS)-defined remission, SDAI remission, CDAI remission, Boolean remission, ACR 20/50/70 response and Major Clinical Response over time were summarized using descriptive statistics (with 95% confidence intervals at each time point).
For each treatment arm, a post hoc analysis was performed of mean baseline characteristics for patients who achieved DAS-defined remission at only Month 12 and at both Months 12 and 18, and of the proportions of patients who achieved DAS-defined remission based on these characteristics. An analysis of the overall treatment effect in mean change from baseline in DAS28 (CRP) (including data up to Month 12 of the treatment period) was performed for each treatment arm. Overall treatment effect and treatment differences between the three arms were obtained using a longitudinal repeated measures model including fixed categorical effects of treatment, months, and prior corticosteroid use as well as the continuous fixed covariate of baseline value. An unstructured covariance matrix was used to represent the correlation of the repeated measures within each subject.

patients with early RA [2] = assay: AVERT trial: HAQ-DI response (≥0.3 points reduction from baseline); format: in vivo, human; details: Month 12
[3] = treatment period, compared subgroups not stated

CN(Cc1cnc2nc(N)nc(N)c2n1)c1ccc(C(=O)N[C@@H](CCC(=O)O)C(=O)O)cc1 [MTX, methotrexate]
proportion of patients in DAS-defined remission (DAS28 [CRP]<2.6) at Month 12 (patients with early RA [1]; Month 12 of treatment period, patients with baseline DAS28 (CRP), discontinuations imputed as non-responders): 45.2%
proportion of patients in DAS-defined remission (DAS28 [CRP]<2.6) at both Months 12 and 18 (patients with early RA [1]; after withdrawal of all RA therapy at Month 12, only patients with DAS28 (CRP) available at baseline): 7.8%
patients remaining in DAS-defined remission at Month 18 (patients with early RA [1]; of the patients who entered the withdrawal period in DAS-defined remission at Month 12): 16.9%
Proportion of Patients with DAS-defined Remission (DAS28 [CRP] < 2.6) at Both Months 12 and 18 (patients with early RA [1]; post hoc subgroup: baseline DAS28 (CRP) >Median (5.4)): 3/55 (5.5) %
Proportion of Patients with DAS-defined Remission (DAS28 [CRP] < 2.6) at Both Months 12 and 18 (patients with early RA [1]; post hoc subgroup: baseline DAS28 (CRP) Missing): 0/1 (0) %
Proportion of Patients with DAS-defined Remission (DAS28 [CRP] < 2.6) at Both Months 12 and 18 (patients with early RA [1]; post hoc subgroup: baseline DAS28 (CRP) ≤Median (5.4)): 6/60 (10.0) %
Proportion of Patients with DAS-defined Remission (DAS28 [CRP] < 2.6) at Both Months 12 and 18 (patients with early RA [1]; post hoc subgroup: baseline Erosion >Median (4.5)): 3/50 (6.0) %
Proportion of Patients with DAS-defined Remission (DAS28 [CRP] < 2.6) at Both Months 12 and 18 (patients with early RA [1]; post hoc subgroup: baseline Erosion >Q1 (1.5)-Q2 (4.5)): 2/23 (8.7) %
Proportion of Patients with DAS-defined Remission (DAS28 [CRP] < 2.6) at Both Months 12 and 18 (patients with early RA [1]; post hoc subgroup: baseline Erosion >Q2 (4.5)-Q3 (8.5)): 2/23 (8.7) %
Proportion of Patients with DAS-defined Remission (DAS28 [CRP] < 2.6) at Both Months 12 and 18 (patients with early RA [1]; post hoc subgroup: baseline Erosion >Q3 (8.5)): 1/27 (3.7) %
Proportion of Patients with DAS-defined Remission (DAS28 [CRP] < 2.6) at Both Months 12 and 18 (patients with early RA [1]; post hoc subgroup: baseline Erosion Missing): 2/13 (15.4) %
Proportion of Patients with DAS-defined Remission (DAS28 [CRP] < 2.6) at Both Months 12 and 18 (patients with early RA [1]; post hoc subgroup: baseline Erosion ≤Median (4.5)): 4/53 (7.5) %
Proportion of Patients with DAS-defined Remission (DAS28 [CRP] < 2.6) at Both Months 12 and 18 (patients with early RA [1]; post hoc subgroup: baseline Erosion ≤Q1 (1.5)): 2/30 (6.7) %
Proportion of Patients with DAS-defined Remission (DAS28 [CRP] < 2.6) at Both Months 12 and 18 (patients with early RA [1]; post hoc subgroup: baseline HAQ-DI >Median (1.375)): 5/49 (10.2) %
Proportion of Patients with DAS-defined Remission (DAS28 [CRP] < 2.6) at Both Months 12 and 18 (patients with early RA [1]; post hoc subgroup: baseline HAQ-DI Missing): 0/11 (0) %
Proportion of Patients with DAS-defined Remission (DAS28 [CRP] < 2.6) at Both Months 12 and 18 (patients with early RA [1]; post hoc subgroup: baseline HAQ-DI ≤Median (1.375)): 4/56 (7.1) %
Proportion of Patients with DAS-defined Remission (DAS28 [CRP] < 2.6) at Both Months 12 and 18 (patients with early RA [1]; post hoc subgroup: baseline Osteitis >Median (0.5)): 3/49 (6.1) %
Proportion of Patients with DAS-defined Remission (DAS28 [CRP] < 2.6) at Both Months 12 and 18 (patients with early RA [1]; post hoc subgroup: baseline Osteitis >Q1 (0)-Q2 (0.5)): 0/5 (0) %
Proportion of Patients with DAS-defined Remission (DAS28 [CRP] < 2.6) at Both Months 12 and 18 (patients with early RA [1]; post hoc subgroup: baseline Osteitis >Q2 (0.5)-Q3 (5)): 2/26 (7.7) %
Proportion of Patients with DAS-defined Remission (DAS28 [CRP] < 2.6) at Both Months 12 and 18 (patients with early RA [1]; post hoc subgroup: baseline Osteitis >Q3 (5)): 1/23 (4.3) %
Proportion of Patients with DAS-defined Remission (DAS28 [CRP] < 2.6) at Both Months 12 and 18 (patients with early RA [1]; post hoc subgroup: baseline Osteitis Missing): 2/13 (15.4) %
Proportion of Patients with DAS-defined Remission (DAS28 [CRP] < 2.6) at Both Months 12 and 18 (patients with early RA [1]; post hoc subgroup: baseline Osteitis ≤Median (0.5)): 4/54 (7.4) %
Proportion of Patients with DAS-defined Remission (DAS28 [CRP] < 2.6) at Both Months 12 and 18 (patients with early RA [1]; post hoc subgroup: baseline Osteitis ≤Q1 (0)): 4/49 (8.2) %
Proportion of Patients with DAS-defined Remission (DAS28 [CRP] < 2.6) at Both Months 12 and 18 (patients with early RA [1]; post hoc subgroup: baseline Pain (100 mm VAS) >Median (62)): 2/45 (4.4) %
Proportion of Patients with DAS-defined Remission (DAS28 [CRP] < 2.6) at Both Months 12 and 18 (patients with early RA [1]; post hoc subgroup: baseline Pain (100 mm VAS) Missing): 0/11 (0.0) %
Proportion of Patients with DAS-defined Remission (DAS28 [CRP] < 2.6) at Both Months 12 and 18 (patients with early RA [1]; post hoc subgroup: baseline Pain (100 mm VAS) ≤Median (62)): 7/60 (11.7) %
Proportion of Patients with DAS-defined Remission (DAS28 [CRP] < 2.6) at Both Months 12 and 18 (patients with early RA [1]; post hoc subgroup: baseline Synovitis >Median (4.5)): 3/56 (5.4) %
Proportion of Patients with DAS-defined Remission (DAS28 [CRP] < 2.6) at Both Months 12 and 18 (patients with early RA [1]; post hoc subgroup: baseline Synovitis >Q1 (2)-Q2 (4.5)): 1/23 (4.3) %
Proportion of Patients with DAS-defined Remission (DAS28 [CRP] < 2.6) at Both Months 12 and 18 (patients with early RA [1]; post hoc subgroup: baseline Synovitis >Q2 (4.5)-Q3 (8.5)): 1/30 (3.3) %
Proportion of Patients with DAS-defined Remission (DAS28 [CRP] < 2.6) at Both Months 12 and 18 (patients with early RA [1]; post hoc subgroup: baseline Synovitis >Q3 (8.5)): 2/26 (7.7) %
Proportion of Patients with DAS-defined Remission (DAS28 [CRP] < 2.6) at Both Months 12 and 18 (patients with early RA [1]; post hoc subgroup: baseline Synovitis Missing): 2/13 (15.4) %
Proportion of Patients with DAS-defined Remission (DAS28 [CRP] < 2.6) at Both Months 12 and 18 (patients with early RA [1]; post hoc subgroup: baseline Synovitis ≤Median (4.5)): 4/47 (8.5) %
Proportion of Patients with DAS-defined Remission (DAS28 [CRP] < 2.6) at Both Months 12 and 18 (patients with early RA [1]; post hoc subgroup: baseline Synovitis ≤Q1 (2)): 3/24 (12.5) %
Proportion of Patients with DAS-defined Remission (DAS28 [CRP] < 2.6) at Both Months 12 and 18 (patients with early RA [1]; post hoc subgroup: symptom duration >6 Months): 2/39 (5.1) %
Proportion of Patients with DAS-defined Remission (DAS28 [CRP] < 2.6) at Both Months 12 and 18 (patients with early RA [1]; post hoc subgroup: symptom duration >Median (0.37 years)): 4/47 (8.5) %
Proportion of Patients with DAS-defined Remission (DAS28 [CRP] < 2.6) at Both Months 12 and 18 (patients with early RA [1]; post hoc subgroup: symptom duration ≤6 Months): 7/77 (9.1) %
Proportion of Patients with DAS-defined Remission (DAS28 [CRP] < 2.6) at Both Months 12 and 18 (patients with early RA [1]; post hoc subgroup: symptom duration ≤Median (0.37 years)): 5/69 (7.2) %
time with DAS28 (CRP) <2.6 during the treatment period (first value of 'x vs y') (patients with early RA [1]; [3]): 5.8 months
time with DAS28 (CRP) <2.6 during the treatment period (second value of 'x vs y') (patients with early RA [1]; [3]): 5.7 months
HAQ-DI Response (≥0.3), proportion of patients (patients with early RA [2]): 44.0% and 51 (44.0) %
